In brackets after ≈: the same amount, converted by molar mass. Activity calls are given as the source filed them. No cut-off for these calls is given here.
Legend:
[1] = Selectivity index, ratio of TC50 for human HepG2 cells to EC50 for antiplasmodial activity against Plasmodium falciparum D6; type: toxicity
[2] = test system: Leishmania donovani; experiment: Antileishmanial activity against Leishmania donovani infected in mouse B10R cells after 72 hrs by DAPI staining based assay; type: functional, organism-based
[3] = Selectivity index, ratio of TC50 for mouse C2C12 cells to EC50 for antitrypanosomal activity against Trypanosoma cruzi CaI-72 trypomastigotes infected in mouse C2C12 cells; type: toxicity, cell-based
[4] = test system: Plasmodium falciparum; experiment: Antiplasmodial activity against Plasmodium falciparum D6 measured after 72 hrs by SYBR green fluorescence dye based microplate reader analysis; type: functional, organism-based; conditions: D6, 72 h
[5] = test system: Trypanosoma cruzi; experiment: Antitrypanosomal activity against Trypanosoma cruzi CaI-72 trypomastigotes infected in mouse C2C12 cells measured after 72 hrs by DAPI staining based assay; type: functional, organism-based; conditions: CaI-72, C2C12, 72 h
[6] = Selectivity index, ratio of TC50 for human HepG2 cells to EC50 for antileishmanial activity against Leishmania major amastigotes infected in mouse RAW 264.7 cells; type: toxicity, cell-based
[7] = test system: Leishmania major; experiment: Antileishmanial activity against Leishmania major amastigotes infected in mouse RAW 264.7 cells by luciferase reporter gene assay; type: functional, organism-based; conditions: RAW264.7
[8] = test system: Trypanosoma cruzi; experiment: Antitrypanosomal activity against Trypanosoma cruzi Tulahuen trypomastigotes infected in mouse NIH/3T3 cells measured after 96 hrs by beta-galactosidase reporter gene assay; type: functional, organism-based; conditions: NIH3T3, 96 h
[9] = test system: Leishmania major; experiment: Antileishmanial activity against Leishmania major; type: functional, organism-based
[10] = test system: Plasmodium falciparum; experiment: Antiplasmodial activity against chloroquine-sensitive mefloquine resistant Plasmodium falciparum D6; type: functional, organism-based
[11] = test system: Trypanosoma cruzi; experiment: Antitrypanosomal activity against Trypanosoma cruzi Tulahuen amastigotes measured after 96 hrs by beta-galactosidase reporter gene assay; type: functional, organism-based
[12] = Intrinsic clearance in rat hepatocytes assessed as per million cells; type: ADME, cell-based, Hepatocyte; conditions: read-out: CLH
[13] = test system: Plasmodium falciparum; experiment: Antiplasmodial activity against Plasmodium falciparum TM91C235 after 72 hrs by SYBR Green fluorescence assay; type: functional, organism-based; conditions: TM91C235, 72 h
[14] = test system: Plasmodium falciparum; experiment: Antiplasmodial activity against Plasmodium falciparum W2 after 72 hrs by SYBR Green fluorescence assay; type: functional, organism-based; conditions: W2, 72 h
[15] = Aqueous solubility of compound at pH 7.4; type: physicochemical
[16] = Intrinsic clearance in human liver microsomes assessed as per mg protein; type: ADME, Microsome; conditions: for microsomal CLint: liver microsomes, read-out: CLH
[17] = Cytotoxicity against human HepG2 cells assessed as reduction in cell viability; type: cell-based; conditions: read-out: TC50 (the source's name)
[18] = Protein binding in human plasma; type: ADME, cell-free; conditions: read-out: PPB (converted)
[19] = Cytotoxicity against mouse C2C12 cells assessed as reduction in cell viability; type: cell-based; conditions: read-out: TC50 (the source's name)
[20] = test system: Leishmania donovani; experiment: Antileishmanial activity against Leishmania donovani promastigotes infected in BALB/c mouse assessed as effect on parasitemia at 50 mg/kg bid for 14 days and measured after 5 weeks post infection; type: functional, organism-based
[21] = Selectivity index, ratio of TC50 for mouse B10R cells to EC50 for antileishmanial activity against Leishmania donovani infected in mouse B10R cells; type: toxicity, cell-based
[22] = aqueous solution, read-out: solubility

| Structure (SMILES) | selectivity ratio [1] | EC50 [2] | selectivity ratio [3] | EC50 [4] | EC50 [5] | selectivity ratio [6] | EC50 [7] | EC50 [8] | other results |
| --- | --- | --- | --- | --- | --- | --- | --- | --- | --- |
| CCCn1cc/c(=N\c2cnccn2)c2ccc(-c3cnc(N4CCCN(C)CC4)nc3)cc21 | > 379 | > 10000 nM | 1.4 | 87 nM | 2100 nM | > 22 | 1500 nM | – | – |
| CN1CCN(c2ncc(Nc3ccc4c(Nc5cnccn5)ccnc4c3)cn2)CC1 | 312 | – | – | 77 nM | – | 14 | 1700 nM | 47000 nM | – |
| CN1CCN(c2ncc(-c3ccc4/c(=N/c5cnccn5)ccn(C)c4c3)cn2)CC1 | 133 | > 10000 nM | – | 180 nM | > 10000 nM | > 10 | 2300 nM | – | – |
| CS(=O)(=O)CCNCc1ccc(-c2ccc3ncnc(Nc4ccc(OCc5cccc(F)c5)c(Cl)c4)c3c2)o1 [LAPATINIB] | – | – | – | – | – | – | – | – | EC50 [9]: > 15000 nM; EC50 [10]: 530 nM; EC50 [11]: 1500 nM |
| Cc1cc2c(Nc3cnccn3)ccnc2cc1-c1cnc(N2CCN(C)CC2)nc1 | 33 | – | – | 180 nM | – | 3.3 | 1800 nM | 22000 nM | – |
| CN1CCCN(S(=O)(=O)c2ccc(-c3ccc4c(Nc5ccc(OC(F)(F)F)cc5)ccnc4c3)cc2)CC1 | 11 | > 10000 nM | 40 | 140 nM | 130 nM | 7.3 | 220 nM | – | – |
| COc1ccc(Nc2ccnc3cc(-c4cnc(N5CCCN(C)CC5)nc4)ccc23)cc1Cl | 1130 | > 10000 nM | 12 | 6 nM | 80 nM | 4.3 | 1600 nM | – | – |
| CN1CCN(c2nccc(Nc3ccc4c(Nc5cnccn5)ccnc4c3)n2)CC1 | – | – | – | 180 nM | – | – | 3300 nM | > 50000 nM | – |
| CN1CCN(c2ccnc(Nc3ccc4c(Nc5cnccn5)ccnc4c3)n2)CC1 | – | – | – | 54 nM | – | – | – | > 20000 nM | – |
| CN1CCN(c2ncc(-c3ccc4c(Nc5cnccn5)ccnc4c3)cn2)CC1 | – | – | – | 26 nM | – | – | > 15000 nM | 6000 nM | EC50 [9]: > 15000 nM; hepatocyte CLint [12]: 127 µL/min/1e6 cells; EC50 [11]: 6000 nM; EC50 [13]: 37 nM; EC50 [14]: 62 nM; solubility ([15]; buffer): […] |
| CS(=O)(=O)N1CCN(c2ncc(-c3ccc4c(Nc5cnccn5)ccnc4c3)cn2)CC1 | – | – | – | > 4300 nM | – | > 45 | 730 nM | 45000 nM | microsomal CLint [16]: 44 µL/min/mg; hepatocyte CLint [12]: 28 µL/min/1e6 cells; CC50 [17]: > 33000 nM; fraction unbound [18]: 0.05; solubility [15, 22]: 0.06 µM (≈ 0.0278 µg/mL) |
| Cc1cncc(Nc2ccnc3cc(-c4cnc(N5CCCN(C)CC5)nc4)ccc23)n1 | 947 | – | – | 19 nM | – | 2 | 9200 nM | – | – |
| c1cnc(Nc2ccnc3cc(-c4cnc(N5CCNCC5)nc4)ccc23)cn1 | > 300 | – | – | 130 nM | – | – | > 5200 nM | > 50000 nM | – |
| O=S(=O)(c1ccc(-c2ccc3nccc(N[C@@H]4CCCC[C@H]4O)c3c2)cc1)N1CCOCC1 | > 80 | – | > 30 | 400 nM | 330 nM | – | > 22000 nM | – | microsomal CLint [16]: 43 µL/min/mg; hepatocyte CLint [12]: 30 µL/min/1e6 cells; fraction unbound [18]: 0.28; solubility [15, 22]: 137 µM (≈ 64.1 µg/mL); CC50 [19]: > 10000 nM |
| CN1CCCN(c2ncc(-c3ccc4/c(=N/c5cnccn5)ccn(C)c4c3)cn2)CC1 | – | 20 nM | – | 120 nM | 10000 nM | – | – | – | CLH ([16]; microsomes): 22 µL/min; Activity [20]: inactive; hepatocyte CLint [12]: 13 µL/min/1e6 cells |
| CC(C)(C)OC(=O)N1CCN(c2ncc(-c3ccc4c(Nc5cnccn5)ccnc4c3)cn2)CC1 | > 207 | – | – | 150 nM | – | > 89 | 350 nM | > 50000 nM | – |
| Cc1c(-c2cnc(N3CCN(C)CC3)nc2)ccc2c(Nc3cnccn3)ccnc12 | – | – | – | 69 nM | – | – | > 24000 nM | 25000 nM | – |
| CN1CCCN(S(=O)(=O)c2ccc(-c3ccc4c(Nc5ccc(Cl)cn5)ccnc4c3)cc2)CC1 | 35 | > 10000 nM | 21 | 51 nM | 160 nM | 1.4 | 1300 nM | – | – |
| CN1CCN(c2ncc(-c3ccc4c(Nc5ccc(OCc6cccc(F)c6)c(Cl)c5)ccnc4c3)cn2)CC1 | 167 | 23 nM | 290 | 18 nM | 30 nM | – | > 1500 nM | – | Activity [20]: inactive; selectivity ratio [21]: 1740 |
| CN1CCCN(c2ncc(-c3ccc4c(Nc5ccc(OC(F)(F)F)cc5)ccnc4c3)cn2)CC1 | 233 | 85 nM | 38 | 6 nM | 60 nM | 0.8 | 8200 nM | – | selectivity ratio [21]: 7.8 |
| CCn1cc/c(=N\c2cnccn2)c2ccc(-c3cnc(N4CCCN(C)CC4)nc3)cc21 | > 200 | > 10000 nM | 1 | 170 nM | 3000 nM | > 1.5 | 23000 nM | – | – |
| COc1ccc(NC(=O)c2ccc(-c3cccc(N4CCOCC4)c3)cc2O)cc1Cl | – | > 10000 nM | – | > 23000 nM | > 10000 nM | > 97 | 360 nM | – | – |
| CN1CCCN(c2ccc(-c3ccc4c(Nc5cnccn5)ccnc4c3)cc2)CC1 | 960 | – | 1 | 10 nM | 370 nM | 1.7 | 5500 nM | – | solubility [15, 22]: 4.1 µM (≈ 1.68 µg/mL) |
| CN1CCN(c2ccc(-c3ccc4c(Nc5cnccn5)ccnc4c3)cc2)CC1 | – | – | – | 74 nM | – | – | > 23000 nM | 6100 nM | – |
| Cc1ccc2[nH]c3c4ccc(-c5cnc(N6CCCN(C)CC6)nc5)cc4ncc3c2c1 | 127 | 640 nM | 2.4 | 37 nM | 210 nM | 10 | 440 nM | – | selectivity ratio [21]: 3.6 |
